Source: patent US20260128119A1, “SCREENING METHODS FOR ACINETOBACTER BAUMANNII SPOT ENZYME MODULATORS” (priority 2022, published 2026)

Columns and labels:
SpoTAb^NTD = assay: Isothermal titration calorimetry (ITC) of ligand binding to SpoTAb^NTD; design: species or system Acinetobacter baumannii
Source text: This is also the case with the specialisation of SpoTAb as a monofunctional hydrolase where the pseudo-SYNTH domain has evolved into a strictly regulatory/structural domain. […] These involve the residues that coordinate adenosine and guanosine (R249 to N241, R277 to E267 and Y329 to N304) and the majority of phosphate-coordinating groups. Crucially, the catalytic residues D272 and Q347 are substituted for S263 and T321, respectively. […]; Roghanian et al., Mol Cell, 2021).
To directly validate the lack of pppGpp-mediated regulation in SpoTAb, we characterised the interaction between pppGpp and SpoTAb^NTD by ITC. […] Following the experimental approach used earlier for SpoTEc (Roghanian et al., Mol Cell, 2021), we next grafted the allosteric site of A. baumannii RelA (^236RelA^246) onto SpoTAb^NTD (replacing ^201SpoTAb^211).
The essential role of the divalent manganese ion Mn^2+ in (p)ppGpp pyrophosphate hydrolysis is well documented for both Rel (Hogg et al., Cell, 2004; Takada et al., Nucleic Acids Res, 2021; Avarbock et al., Biochemistry, 2000; Van Nerom et al., Acta Crystallogr F Struct Biol Commun, 2019) and SpoTEc (Heinemeyer et al., Eur J Biochem, 1978).

SpoTAb = assay: HD (ppGpp hydrolysis) activity of SpoTAb in presence of added factors; assay type: biochemical, Acinetobacter baumannii; conditions: metal-free full-length SpoTAb (completely HD inactive)
Source text: FIG. 1. Full-length monomeric A. baumannii SpoT adopts a compact “mushroom”-shaped HD-active τ-state. (a) Structure of “mushroom”-shaped SpoTAb-ppGpp complex in the τ-state. The domain organization, from N to C terminus: NTD domains hydrolase (HD), pseudo-synthetase (pseudo-SYNTH) and Core, and CTD domains, TGS, Helical (HEL), Zn-finger (ZFD) and RNA recognition motif (RRM). The ppGpp alarmone is labelled. (b) Cartoon representation the SpoTAb. The “stem” of the mushroom is formed by the enzymatic HD domain and the “cap” by the regulatory domains: NTD pseudo-SYNTH domain and the CTD domains. (c) Ribbon representation of the SpoTAb-ppGpp complex. The α6/α7 motif is held in the hydrolysis-compatible position by the folded Core domain and the TGS β-hairpin, with the Core domain communicating allosteric signals to HD from the regulatory domains. […] (e) Analytical size exclusion chromatography (SEC) of SpoTAb supports its monomeric nature in solution. (f) Experimental X-ray scattering (SAXS) analysis of SpoTAb at 8 mg/mL further confirms the monomeric nature of SpoTAb. […] (g) Ab initio envelope of SpoTAb reconstructed from the experimental SAXS data superimposed on the crystal structure.
While the SYNTH and TGS domains are sequestered in the “cap”, the HD hydrolase stands out unconfined and primed for (p)ppGpp hydrolysis. […]

[1] = molecular target: the molecule itself; assay: SEC-SAXS and analytical size exclusion chromatography in solution (oligomeric state, self-association)

Molecule: Nc1nc2c(ncn2[C@@H]2O[C@H](COP(=O)(O)OP(=O)(O)O)[C@@H](O)[C@H]2O)c(=O)[nH]1 [GDP]
- GDP binding by SpoTAb (SpoTAb^NTD): does not bind

Molecule: [Mn+2] [Mn^2+]
- HD activity upon addition to metal-free enzyme (SpoTAb): readily restored

Molecule: Nc1nc2c(ncn2C2OC(COP(=O)(O)OP(=O)(O)OP(=O)(O)O)C(OP(=O)(O)OP(=O)(O)O)C2O)c(=O)[nH]1 (stereo not shown) [pppGpp, guanosine pentaphosphate]
- allosteric binding of pppGpp (SpoTAb^NTD): does not bind

B1: Acinetobacter baumannii SpoT enzyme (enzyme)
chain: MPGEEVSQAKQQLKLIIDPYLSVSEVEKVLAACDFGDLAHTGITRKSGEPYILHPIAVSCILANMRLDPETLMAALLHDVIEDTQYTKDDIIERFGQTVAELVDGVTKLSQSSDKEYNKAASFRKILQATLQDPRVIIIKLADRYHNMTTLGALRPDKRARIAQETFDIFVPMARLVGMNEMADNLENLCYQNLDLDMFDNVQNALLQTKPERCKYQSIWEQNLAELLHNYHIQGRIKKKNNNIELLRHFVKNEMDLQELTHSHAFEIVLQSIADCDRLVAALKENFQVIQYQDHIRRPLPGGNQSLMIKLKGEKTTLSLTIQTELMRKAARFGVVLGENAPQTCRSAIQASMQNLNTLIDGECAKTTFNDLLDYLHQEKIWVYTPHGQLHELPQGATVVDFAYSASLFLGNHAVGAKVDGEIKPLSTPLVSGQVIEIITDVLATPNPDWLSFINTQKARRALQHVLKDQDIEEQRLVGAQALSRALKLFNRSINDLSDADWLDLLQWRHIDNKDALFEQIAVGDLLPQLVANHLFANDKHPRAENSDRLIQGTEGIDVKYAHCCNPILGDPIQGHLTRRGLIVHRIRCHNLLHEQHLHPENIMPLQWKADDVDDVRFTAYLAIYMAMNDEQVSDLIYQCRKNNAGVEMVHSNEQRTFVNIVVNNRKHIAKVIRDLRMHYGFPRIERLDAPAPQMEISKVS
notes: Full-length wild-type SpoTAb; also called SpoTAb; A. baumannii SpoT
- binding result [1]: no binding (tested: 8 mg/mL)
